Reference: the CheMixHub ionic liquid set

Assay: xn = mol fraction of the nth substance listed

CCCC[n+]1ccn(C)c1.O=S(=O)([N-]S(=O)(=O)C(F)(F)F)C(F)(F)F + c1ccsc1
Conditions | viscosity [mPa·s]
328.15 K, 100 kPa, x2 = 0 | 17.98

CCCC[n+]1ccn(C)c1.F[P-](F)(F)(F)(F)F + OCC(F)(F)F
101 kPa, x2 = 0
Conditions | viscosity [mPa·s]
278.15 K | 1165
283.15 K | 774
288.15 K | 533
293.15 K | 378
298.15 K | 274
303.15 K | 203
308.15 K | 154
313.15 K | 119
318.15 K | 93.5
323.15 K | 74.6
328.15 K | 60.4
333.15 K | 49.5

CC(=O)c1ccccc1 + CC[n+]1ccn(C)c1.F[B-](F)(F)F
100 kPa
Conditions | viscosity [mPa·s]
293.15 K, x1 = 0.2999 | 19.7
293.15 K, x1 = 0.4003 | 16
303.15 K, x1 = 0.094 | 16.9
303.15 K, x1 = 0.4989 | 8.9
313.15 K, x1 = 0.8918 | 2.09
313.15 K, x1 = 0.9498 | 1.68
323.15 K, x1 = 0.094 | 9.4
323.15 K, x1 = 0.4003 | 6.3
323.15 K, x1 = 0.4989 | 4.73
333.15 K, x1 = 0.0416 | 9.1
333.15 K, x1 = 0.094 | 7.5
333.15 K, x1 = 0.4003 | 5
333.15 K, x1 = 0.8918 | 1.52
333.15 K, x1 = 0.9498 | 1.23
333.15 K, x1 = 1 | 1.09

CCCC[n+]1ccccc1.[Cl-] + CCCC[n+]1ccccc1.[Br-]
101 kPa
Conditions | viscosity [mPa·s]
398.1 K, x1 = 0.084 | 33
403.1 K, x1 = 0.084 | 27.4
408.1 K, x1 = 0.389 | 23.9
418.1 K, x1 = 0.169 | 16.9
418.1 K, x1 = 0.389 | 17.4
418.1 K, x1 = 0.689 | 18.6
418.1 K, x1 = 0.892 | 19.4
423.1 K, x1 = 0.084 | 14.37
423.1 K, x1 = 0.892 | 16.89
428.1 K, x1 = 0.785 | 14.42
433.1 K, x1 = 0.292 | 11.45
433.1 K, x1 = 0.892 | 13.16
438.1 K, x1 = 0.169 | 10.08
438.1 K, x1 = 0.469 | 10.85
438.1 K, x1 = 0.892 | 11.77

CCCC[P+](C)(CCCC)CCCC.COS(=O)(=O)[O-] + O
Conditions | viscosity [mPa·s]
298.15 K, 100 kPa, x1 = 0.004192 | 1.135

CN1CCCC1=O + CC[n+]1ccn(C)c1.COS(=O)(=O)[O-]
Conditions | viscosity [mPa·s]
313.15 K, 101 kPa, x1 = 1 | 1.31

CN(C)C=O + CCCCCC[n+]1ccn(C)c1.[Cl-]
101 kPa, x1 = 1
Conditions | viscosity [mPa·s]
288.15 K | 0.94
298.15 K | 0.82

CC[n+]1ccn(C)c1.O=S(=O)([O-])O + O=C([O-])CC(O)(CC(=O)[O-])C(=O)[O-].[NH4+].[NH4+].[NH4+] + O
viscosity [mPa·s], 101 kPa
Conditions | 293.15 K | 298.15 K | 303.15 K | 308.15 K | 313.15 K
x2 = 0, x1 = 0.0006645 | 1.023 | 0.93 | 0.823 | 0.75 | 0.674
x2 = 0, x1 = 0.0007293 | 1.036 | 0.943 | 0.825 | 0.749 | 0.689
x2 = 0, x1 = 0.0009254 | 1.064 | 0.943 | 0.844 | 0.763 | 0.683
x2 = 0.0007784, x1 = 0.0007287 | 1.08 | 0.994 | 0.875 | 0.801 | 0.743
x2 = 0.0007964, x1 = 0.0009246 | 1.11 | 0.994 | 0.895 | 0.815 | 0.737
x2 = 0.000825, x1 = 0.0006639 | 1.07 | 0.983 | 0.877 | 0.803 | 0.727
x2 = 0.001056, x1 = 0.0007285 | 1.096 | 1.005 | 0.886 | 0.813 | 0.756
x2 = 0.001057, x1 = 0.0006638 | 1.083 | 0.992 | 0.886 | 0.813 | 0.737
x2 = 0.001176, x1 = 0.0009243 | 1.133 | 1.008 | 0.911 | 0.832 | 0.755
x2 = 0.001406, x1 = 0.0009241 | 1.146 | 1.017 | 0.919 | 0.841 | 0.765
x2 = 0.001588, x1 = 0.0007281 | 1.126 | 1.024 | 0.906 | 0.834 | 0.779
x2 = 0.001621, x1 = 0.0006634 | 1.115 | 1.012 | 0.906 | 0.835 | 0.761
x2 = 0.001717, x1 = 0.0006634 | 1.12 | 1.015 | 0.91 | 0.839 | 0.764
x2 = 0.001746, x1 = 0.000728 | 1.135 | 1.029 | 0.911 | 0.84 | 0.786
x2 = 0.001804, x1 = 0.0009237 | 1.169 | 1.03 | 0.934 | 0.857 | 0.782
x2 = 0.002295, x1 = 0.0009233 | 1.198 | 1.047 | 0.951 | 0.876 | 0.803
x2 = 0.002321, x1 = 0.0007276 | 1.168 | 1.048 | 0.931 | 0.861 | 0.809
x2 = 0.002323, x1 = 0.000663 | 1.155 | 1.034 | 0.93 | 0.86 | 0.787
x2 = 0.002686, x1 = 0.0007273 | 1.189 | 1.059 | 0.943 | 0.874 | 0.824
x2 = 0.002704, x1 = 0.0006627 | 1.176 | 1.046 | 0.942 | 0.873 | 0.801
x2 = 0.002709, x1 = 0.0009229 | 1.223 | 1.06 | 0.965 | 0.891 | 0.82
